Values of other authors, collected in US10478472B2, “Combination of tolerogenic peptides and TFG-B for use in the induction and maintenance of oral tolerance in young mammals” (NESTEC S.A., priority 2015, dated 2019).

Settings: identified as part of a longer peptide sequence in WO2000/42863

Row | Substance | inducers of oral tolerance
1 | EVDDEALEK (listed as Bos taurus) [SEQ ID No. 8, BLG peptide, position 143-151] | inducers of oral tolerance
2 | IDALNENK (listed as Bos taurus) [SEQ ID No. 6, BLG peptide, position 100-107] | inducers of oral tolerance
3 | VLDTDY (listed as Bos taurus) [SEQ ID No. 7, BLG peptide, position 110-115] | inducers of oral tolerance
